Source: PubChem BioAssay (NCI)
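Results reflect a 48-hour exposure of cells in 96-well plates to compound at five concentrations. The concentration for 50% growth inhibition is given as GI50. TGI marks complete inhibition of growth.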

Legend:
Assay in all cases: inhibition of tumour cell growth, NCI panel, 48 h
OVCAR-4 ovarian = system: OVCAR-4 ovarian
OVCAR-5 ovarian = system: OVCAR-5 ovarian
RXF 393 renal = system: RXF 393 renal
CCRF-CEM leukemia = system: CCRF-CEM leukemia
U251 CNS = system: U251 CNS
SK-MEL-2 melanoma = system: SK-MEL-2 melanoma
NCI-H522 lung = system: NCI-H522 lung
NCI/ADR-RES ovarian = system: NCI/ADR-RES ovarian
T-47D breast = system: T-47D breast
A549 NSCLC = system: A549 NSCLC

Structure (SMILES) | GI50 (OVCAR-4 ovarian) [µM] | TGI (OVCAR-4 ovarian) [µM] | GI50 (OVCAR-5 ovarian) [µM] | TGI (OVCAR-5 ovarian) [µM] | GI50 (RXF 393 renal) [µM] | TGI (RXF 393 renal) [µM] | GI50 (CCRF-CEM leukemia) [µM] | GI50 (U251 CNS) [µM] | TGI (U251 CNS) [µM] | GI50 (SK-MEL-2 melanoma) [µM] | TGI (SK-MEL-2 melanoma) [µM] | GI50 (NCI-H522 lung) [µM] | TGI (NCI-H522 lung) [µM] | GI50 (NCI/ADR-RES ovarian) [µM] | TGI (NCI/ADR-RES ovarian) [µM] | GI50 (T-47D breast) [µM] | TGI (T-47D breast) [µM] | GI50 (A549 NSCLC) [µM] | TGI (A549 NSCLC) [µM] | TGI (CCRF-CEM leukemia) [µM]
O=C(NCCCCCCNC(=O)OCc1ccc2c(Cl)cc(Cl)c(O)c2n1)OCc1ccc2c(Cl)cc(Cl)c(O)c2n1 | 0.707 | 2.04 | 1.5 | 3.01 | 0.478 | 1.57 | 0.311 | 1.44 | 2.92 | 1.45 | 2.99 | 0.46 | 2.1 | 0.518 | 6.58 | 1.75 | 5.67 | 1.55 | 3.62 | –
Nc1nc(-c2ccc(Cl)cc2)cc(-c2ccccc2)c1-c1nc2ccccc2o1 | 11.5 | 28 | 19.8 | 54.7 | 3.69 | 16.9 | 4.2 | 4.49 | 18.7 | 15.5 | 39.2 | 9.5 | 33.9 | 5.46 | > 100 | 10.2 | 27.2 | 5.9 | > 100 | 33.6
CCCCCC/C=C1\CCC(CN(C)C)C1=O (centres undefined) | – | 45.3 | – | 30.8 | – | 9.8 | – | – | 9.47 | – | 26.6 | – | 6.28 | – | 44.4 | – | 9.81 | – | 36.9 | 7.21
Nc1nc(-c2ccccc2)cc(-c2ccc(Cl)cc2)c1-c1nc2ccccc2o1 | 13.5 | 28 | 21.8 | 42.1 | 21.5 | 44.6 | 3.8 | 9.2 | 21 | 18 | 37.9 | 13.5 | 30.6 | 11.5 | 43.4 | 4.21 | 27.3 | 14.9 | 31.4 | 17
N#CSc1ccc(S(N)(=O)=O)cc1 | – | 93.1 | – | > 100 | – | 70.6 | – | – | 38.1 | – | > 100 | – | 26.5 | – | > 100 | – | > 100 | – | > 100 | 88.7
O=S(=O)(Nc1ccccn1)c1ccc(N=Nc2ccc(O)c3ncccc23)cc1 | 2.33 | 12.2 | 3.53 | 18.7 | 1.24 | 11.9 | 1.21 | 0.388 | 7.04 | 0.463 | 1.64 | 0.418 | 2.14 | 1.02 | 12.8 | 2.98 | 8.7 | 1.65 | 14 | > 95.2
C[C@@H]1OCC2(CCN(c3cnc(Sc4ccnc(N)c4Cl)c(N)n3)CC2)[C@@H]1N | 26.9 | > 100 | > 100 | > 100 | 3.46 | > 67.6 | > 95.6 | 9.48 | > 100 | > 100 | > 100 | 7.98 | > 100 | > 100 | > 100 | 46.3 | > 100 | > 100 | > 100 | > 100
COc1ccc2nc(-c3cc4c([nH]c5ccccc54)c(-c4ccc(F)c(F)c4)n3)[nH]c2c1 | 6.3 | 24 | 17.8 | 58.6 | 3.46 | 13.1 | 2.36 | 2.77 | 10.2 | 12.1 | 34.9 | 10 | 33.8 | 4.22 | 64.8 | 3.76 | 20 | 4.05 | 17.6 | 7.8
O=c1ccnc(SCc2ccc(Cl)cc2)[nH]1 | – | > 100 | – | > 100 | – | > 100 | – | – | > 100 | – | > 100 | – | > 100 | – | > 100 | – | > 100 | – | > 100 | > 100
Cn1c(=O)c2[nH]c(CCCCc3nc4c([nH]3)c(=O)n(C)c(=S)n4C)nc2n(C)c1=S | – | > 100 | – | > 100 | – | > 100 | – | – | > 100 | – | > 100 | – | > 100 | – | > 100 | – | > 100 | – | > 100 | > 100
